Test results as given in patent publication US8163509B2, “Biological markers predictive of anti-cancer response to insulin-like growth factor-1 receptor kinase inhibitors” (The Regents of the University of Colorado, A Body Corporate, priority 2008, dated 2012).
Like-named read-outs stand apart in the source and are kept apart here.

What was measured:
Experiment in all cases: SRB proliferation assay, 72 h
Assay type in all cases: cell-based, human
[1] = system: SK-CO-1 CRC cell line; settings: for IC50: Homo sapiens
Method: (§1) FIG. 17: Results of cell proliferation assay on the panel of 27 CRC cell lines. Cell proliferation was evaluated by SRB following exposure to OSI-906 for 72 hours. Cells were plated at an optimized density in 96-well plates, incubated overnight at 37° C., and then exposed to a serial dilution of OSI-906. After 72 hours incubation, cells were fixed with trichloroacetic acid and an SRB was performed as described in materials and methods.
(§2) Cell Lines and Culture. […] human colon cancer cell lines, were obtained from American Type Culture Collection (Manassas, Va.). Cells were grown in RPMI medium supplemented with 10% fetal bovine serum, 1% non-essential amino acids, 1% penicillin/streptomycin and were maintained at 37° C. in an incubator under an atmosphere containing 5% CO2. The cells were routinely screened for the presence of mycoplasma (MycoAlert, Cambrex Bio Science, Baltimore, Md.) and were exposed to PQIP when they reached approximately 70% confluence.
(§3) The CRC cell lines were treated with a range of concentrations of PQIP (from 0.05-5 μM) for 72 hours.
(§4) Cell Lines and Culture: Twenty-seven human colon cancer cell lines, were obtained from American Type Culture Collection (Manassas, Va.). The GEO cells were a generous gift from Dr. Fortunato Ciardiello (Cattedra di Oncologia Medica, Dipartimento Medico-Chirurgico di Internistica Clinica e Sperimentale “F Magrassi e A Lanzara,” Seconda Università degli Studi di Napoli, Naples). All cells except GEO were grown in RPMI medium supplemented with 10% fetal bovine serum, 1% non-essential amino acids, 1% penicillin/streptomycin and were maintained at 37° C. in an incubator under an atmosphere containing 5% CO2. GEO cells were grown in DMEM/F12 supplemented with 10% fetal bovine serum, 1% non-essential amino acids, 1% penicillin/streptomycin. The cells were routinely screened for the presence of mycoplasma (MycoAlert, Cambrex Bio Science, Baltimore, Md.) and were exposed to OSI-906 when they reached approximately 70% confluence. OSI-906 was provided by OSI Pharmaceuticals, (Boulder, Colo.) and prepared as a 10 mM stock solution in DMSO.
(§5) Assessment of responsiveness of a panel of CRC cell lines to OSI-906. In order to assess CRC cell lines with differential sensitivity to OSI-906, a panel of 27 CRC cell lines were exposed to increasing concentrations of OSI-906 and proliferation was measured using the SRB assay as described previously (Pitts, T M, et al. Mol Cancer Ther 2009; 8(2):342-9). As depicted in FIG. 17 there was a wide range of sensitivity of the CRC cell lines to OSI-906, the majority of the cell lines failing to reach an IC50 up to 5 μmol/L, but a clear distinction could be made between the cell lines that were sensitive and the cell lines that were resistant.

[2] = system: SW620 CRC cell line; settings: for IC50: Homo sapiens
Method: as §1, §2, §3, §4, §5

[3] = system: Colo201 CRC cell line; settings: for IC50: Homo sapiens, COLO 201
Method: as §1, §2, §3, §4, §5

[4] = system: SW480 CRC cell line; settings: for IC50: Homo sapiens, SW480
Method: as §1, with “Cell” for “FIG. 17: Results of cell proliferation assay on the panel of 27 CRC cell lines. Cell”
as §2
(§6) Multiple clones from the same transfection were pooled and grown under puromycin selection.
as §3
(§7) To characterize the potential functionality that the selected genes may play in the sensitivity or resistance to PQIP, resistant and sensitive CRC cell lines were stably transfected with specific shRNA, treated with increasing concentrations of PQIP and proliferation assays performed to observe, if when manipulated, these genes alter responsiveness (i.e. the S or R phenotype). […] Both of these transfected cell lines were assayed for proliferation as described above.
as §4, §6

[5] = system: HT29 CRC cell line
Method: as §1, §2
Cytotoxicity and Combination Effects: HT29, HCT116, RKO, and LS513 CRC cell lines were exposed to 0-10 nM SN-38 (7-Ethyl-10-hydroxy-camptothecin), 0-10 μM Oxaliplatin, or 0-50 μM 5-Fluorouracil (5-FU) for 72 hours. HT29, HCT116, RKO, and LS513 CRC cell lines were exposed to PQIP in combination with SN-38, Oxaliplatin or 5-FU. In all combinations, cells were seeded in 96-well flat bottomed plates and left overnight. PQIP and chemotherapy were both added for 72 hours. The results of the combinations were analyzed by the Chou and Talalay method with Calcusyn (Biosoft, Ferguson, Mo.).
as §3
as §7, with “phenotype). Two resistant cell lines HCT116 and SW480 were transfected with metallothionein 2A (MT-2A) shRNA and were exposed to increasing concentrations of PQIP.” for “phenotype).”, “above. […] HT29 tumor cells were transfected with shRNA for ALDH1A1, which is up regulated in the PQIP sensitive cell lines.” for “above.”
Combination treatment of PQIP with Chemotherapy in Colon Cancer Cell Lines: IGF1R is overexpressed in CRC and has been associated with resistance to chemotherapy. Therefore, we investigated the effect of PQIP in combination with standard chemotherapy for CRC. Four CRC cell lines including, two PQIP sensitive and two PQIP resistant, were chosen for combinations. HT29 and LS513 CRC cell lines were classified as sensitive, with IC50's around 0.3 μmol/L. HCT116 and RKO CRC cell lines were classified as resistant, with IC50>5 μmol/L. Concentrations were chosen based on single agent proliferation curves for each compound. Cells were exposed to PQIP and chemotherapy (SN38, oxaliplatin, or 5-Fluorouracil) concurrently for 72 h and combinations were assessed using the SRB assay. […] It thus appears that biomarkers which predict tumor cell sensitivity will also indicate which cells will respond in a synergistic manner to an IGF-1R kinase inhibitor (e.g. PQIP) and chemotherapy (i.e. SN38, oxaliplatin, or 5-Fluorouracil).
Cell Lines and Culture: Twenty-seven human colon cancer cell lines, were obtained from American Type Culture Collection (Manassas, Va.). The GEO cells were a generous gift from Dr. Fortunato Ciardiello (Cattedra di Oncologia Medica, Dipartimento Medico-Chirurgico di Internistica Clinica e Sperimentale “F Magrassi e A Lanzara,” Seconda Università degli Studi di Napoli, Naples). […]

[6] = 72 hours, read-out: IC50, proliferation, OSI-906 (SRB)

`C[C@]1(O)C[C@@H](c2nc(-c3ccc4ccc(-c5ccccc5)nc4c3)c3c(N)nccn32)C1` [OSI-906, cis-3-[8-amino-1-(2-phenyl-quinolin-7-yl)-imidazo[1,5-a]pyrazin-3-yl]-1-methyl-cyclobutanol] was tested, and the IC50 [1, 6] was > 5 µM, the IC50 ([1]; read-out: S/I/R to OSI-906) was > 5 µM and the IC50 ([2]; SW-620, 72 hours, read-out: IC50, proliferation, OSI-906 (SRB)) was > 5 µM. The IC50 ([2]; SW-620, read-out: S/I/R to OSI-906) was > 5 µM, the IC50 ([3]; CoLo201, read-out: S/I/R to OSI-906) was > 5 µM and the IC50 ([3]; Colo201, 72 hours, read-out: IC50, proliferation, OSI-906 (SRB)) was > 5 µM. The IC50 ([4]; read-out: S/I/R to OSI-906) was > 5 µM, the IC50 [4, 6] was > 5 µM and the “shift in sensitivity to OSI-906 after MT2A shRNA knockdown” value ([4]; SW480 stably transfected with MT2A shRNA) was “did not exhibit the same “left shift””. For the same compound, the IC50 ([5]; Homo sapiens, HT-29, 72 h, HT29, 72 hours, read-out: IC50, proliferation, OSI-906 (SRB)) was ≤ 1.5 µM and the IC50 ([5]; Homo sapiens, HT-29, HT29, read-out: S/I/R to OSI-906) was ≤ 1.5 µM.

For `CN1CCN([C@H]2C[C@@H](c3nc(-c4ccc5ccc(-c6ccccc6)nc5c4)c4c(N)nccn43)C2)CC1` [PQIP, cis-3-[3-(4-Methyl-piperazin-1-yl)-cyclobutyl]1-(2-phenyl-quinolin-7-yl)-imidazo[1,5-a]pyrazin-8-ylamine], the “sensitivity to growth inhibition by PQIP (SRB)” value (“sensitivity to growth inhibition” below) ([1]; 72 hours, 0.05-5 μM) was “intermediate sensitivity”, the “sensitivity to growth inhibition” value ([2]; 72 hours, 0.05-5 μM) was “intermediate sensitivity” and the “sensitivity to growth inhibition” value ([3]; Colo201, 72 hours, 0.05-5 μM) was “intermediate sensitivity”. For the same compound, the IC50 ([4]; 72 hours, 0.05-5 μM, read-out: IC50, growth inhibition by PQIP (SRB)) was > 5 µM, the “shift in sensitivity to PQIP after shRNA knockdown” value (“shift in sensitivity to PQIP” below) ([4]; SW480 transfected with MT2A shRNA vs parental or scramble shRNA control) was “very modest if any left shift in sensitivity” and the “shift in sensitivity to PQIP” value ([4]; SW480 transfected with caldesmon shRNA vs parental or scramble shRNA control) was “no left shift in sensitivity”. The IC50 ([5]; HT29, 72 hours, 0.05-5 μM, read-out: IC50, growth inhibition by PQIP (SRB)) was ~0.3 µM, the “combination index (CI) values, PQIP and chemotherapy” value ([5]; HT29, PQIP with SN38, oxaliplatin or 5-Fluorouracil concurrently 72 h, nearly all CI values, Chou and Talalay) was 0.2-1.0 and the “shift in sensitivity to PQIP” value ([5]; HT29 with ALDH1A1 shRNA knockdown) was “no left shift in sensitivity”. The IC50 ([5]; Homo sapiens, HT-29, 72 h, HT29, 72 hours, 0.05-5 μM, read-out: IC50, growth inhibition by PQIP (SRB)) was < 0.5 µM.
